Measured values from patent US7335688B2, “Bicyclic cannabinoid agonists for the cannabinoid receptor” (University of Connecticut, priority 1999, dated 2008).

Molecular target: T1, CB2 receptor (Mus musculus, UniProt P47936)
T1 construct: membranes were prepared from frozen mouse spleen; from tissue; host or cells: mouse spleen membranes
Test: CB2 receptor binding assay ([3H] CP-55,940 displacement, mouse spleen membranes)
Conditions: CB2 (mouse spleen) versus CB1 (rat forebrain membranes) binding affinity
Protocol: As used herein, “binding affinity” (Ki) is represented by the IC50 value which is the concentration of an analog required to occupy the 50% of the total number (Bmax) of the receptors. The lower the IC50 value the higher the binding affinity. […] The AM1703 material was tested for CB2 receptor binding affinity and for CB1 receptor affinity (to determine selectivity for the CB2 receptor).
Membranes, previously frozen at −80° C., were thawed on ice. To the stirred suspension was added three volumes of TME (25 mM Tris-HCI buffer, 5 mM MgCl2 and 1 mM EDTA) at a pH 7.4. The suspension was incubated at 4° C. for 30 min. At the end of the incubation, the membranes were pelleted and washed three times with TME.
The treated membranes were subsequently used in the binding assay described below. Approximately 30 μg of membranes were incubated in silanized 96-well microtiter plate with TME containing 0.1% essentially fatty acid-free bovine serum albumin (BSA), 0.8 nM [^3H] […] Radioactivity was detected using MicroScint 20 scintillation cocktail added directly to the dried filterplates, and the filterplates were counted using a Packard Instruments Top-Count. Nonspecific binding was assessed using 100 nM CP-55,940. […] CP-55,940, determined using buffer and 100 nM CP-55,940. The normalized data was analyzed using a 4-parameter nonlinear logistic equation to yield IC50 values. […]

T1 sequence (P47936 whole entry): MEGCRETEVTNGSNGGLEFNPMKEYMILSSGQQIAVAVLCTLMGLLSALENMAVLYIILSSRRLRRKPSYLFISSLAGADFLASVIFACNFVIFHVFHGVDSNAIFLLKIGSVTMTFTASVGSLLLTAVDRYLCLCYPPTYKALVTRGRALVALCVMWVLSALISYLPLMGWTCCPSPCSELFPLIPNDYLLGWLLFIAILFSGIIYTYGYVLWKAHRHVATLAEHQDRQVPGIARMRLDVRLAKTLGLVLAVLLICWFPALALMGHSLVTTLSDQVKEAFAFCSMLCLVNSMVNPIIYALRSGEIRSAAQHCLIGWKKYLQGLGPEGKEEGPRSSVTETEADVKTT

`C#CCCCCC(C)(C)c1cc(O)c([C@@H]2CC(=O)[C@@H]3C[C@H]2C3(C)C)c(O)c1` [AM1703] was tested, and the “CB2 selectivity over CB1” value was ~500 fold.
